The text below walks through data of patent US20190315806A1, “POLYMYXIN DERIVATIVE, PREPARATION METHOD AND APPLICATION THEREOF” (priority 2016, published 2019).

≈ marks a conversion by molar mass, not a printed value. Where a SMILES comes first, the peptide text is derived from it. Bridges are numbered along the chain shown (N, C = ends). [ ]: non-standard residue; d: D form. The star is where a group is joined. Heptanoyl(6-Me) = CC(C)CCCCC(=O)*; Octanoyl(7-Me) = CC(C)CCCCCC(=O)*; X2 = CC[C@H](C)CCCCC(=O)*; Heptanoyl = CCCCCCC(=O)*; Dab = NCC[C@H](N)C(=O)O; Nva = CCC[C@H](N)C(=O)O

Common to all, as to type: cell-based
Data set [1] relates to Acinetobacter baumannii ATCC 19606. The note with it: ATCC 19606. Summed up:
(§1)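 Compounds were serially diluted twofold in broth, added to dishes, then mixed with molten agar to give 0.03–128 μg/mL final. Strains grown overnight in nutrient, brain heart infusion or HTM broth were diluted and spotted at 10^4 CFU/dot. Plates were incubated at 35° C. for 18–24 hours before MIC reading.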

The test system of data set [2] is Escherichia coli ATCC 25922. The settings on record: ATCC 25922. The gist of the method:
as §1

Data set [3] deals with Pseudomonas aeruginosa ATCC 27853. The note with it: ATCC 27853. Summed up:
as §1

Data set [4] deals with Staphylococcus epidermidis ATCC 12228. The settings on record: ATCC 12228. The gist of the method: as §1
For data set [5], the system named is Klebsiella pneumoniae ATCC BAA-2146 (NDM-1). The data set can be described thus: Antibacterial activity, MIC by dish double dilution method. The settings on record: ATCC BAA-2146. The gist of the method:
as §1

Data set [6] can be described thus: Nephrotoxicity test, renal cytotoxicity by MTT method. The note with it: African green monkey. The method, then:
African green monkey kidney cells (Vero cells) were cultured in MEM medium (Hyclone), 10% fetal calf serum (Invitrogen) was added before use, cultured at 37° C. under 5% CO2.
Experiment was carried out using MTT method. After digestion, cells in logarithmic growth phase were counted, then the cells were inoculated in a 96-well culture plate. After incubation for 24 h to be adherent, cells were treated with a concentration gradient of a compound of the invention (e.g., a compound prepared in the Embodiments) and the controls. After 72 h, the culture solution was removed, 100 uL of MTT reagent at a concentration of 0.5 mg/ml was added, the medium was removed after incubating for 3 hours in a 37° C. incubator. Add 150 μL DMSO solvent to each well, mix for 3 min, after which the absorbance at 570 nm (A) was measured with a microplate reader.
Cell viability %=(Adosed cell−Abackground)/(Acontrol cell−Abackground)×100%. The average value of 3 parallel wells was taken for each detection point, and the inhibition curve was drawn to calculate the IC50 value.
The African green monkey kidney cells (Vero cells) used in the experiment were from the Cell Resource Center of the Institute of Basic Medicine, Chinese Academy of Medical Sciences.

Consider `CC[C@H](C)CCCCC(=O)N[C@@H](CCN)C(=O)N[C@H](C(=O)N[C@@H](CCN)C(=O)N[C@H]1CCNC(=O)[C@H]([C@@H](C)O)NC(=O)[C@H](CCN)NC(=O)[C@H](CCN)NC(=O)[C@H](C(C)C)NC(=O)[C@@H](CC(C)C)NC(=O)[C@H](CCN)NC1=O)[C@@H](C)O` [Compound 72, (S)-6-methyloctanoyl-Dab-Thr-Dab-ring(4-10)[Dab-Dab-D-Leu-Val-Dab-Dab-Thr]] (X2-[Dab]T[Dab][Dab][Dab][dL]V[Dab][Dab]T; lactam 4-C), for which the “MIC A. baumannii ATCC 19606” value in data set [1] came out at 0.5 µg/mL (≈ 0.433 µM). For the same molecule, the “MIC E. coli ATCC 25922” value in data set [2] was determined as 0.5 µg/mL (≈ 0.433 µM). The “MIC P. aeruginosa ATCC 27853” value in data set [3] was determined as 2 µg/mL (≈ 1.73 µM). Besides, the “MIC S. epidermidis ATCC 12228” value in data set [4] was 128 µg/mL (≈ 111 µM). The “MIC K. pneumoniae ATCC BAA-2146 (NDM-1)” value in data set [5] was 0.5 µg/mL (≈ 0.433 µM). It took 131 ± 8.69 µg/mL (≈ 113 µM) to reach half-maximal inhibition in data set [6] (IC50 at 72 h).

Regarding `CCC[C@@H]1NC(=O)[C@@H](CC(C)C)NC(=O)[C@H](CCN)NC(=O)[C@@H](NC(=O)[C@H](CCN)NC(=O)[C@@H](NC(=O)[C@H](CCN)NC(=O)CCCC[C@@H](C)CC)[C@@H](C)O)CCNC(=O)[C@H]([C@@H](C)O)NC(=O)[C@H](CCN)NC(=O)[C@H](CCN)NC1=O` [Compound 73, (S)-6-methyloctanoyl-Dab-Thr-Dab-ring(4-10)[Dab-Dab-D-Leu-Nva-Dab-Dab-Thr]] (X2-[Dab]T[Dab][Dab][Dab][dL][Nva][Dab][Dab]T; lactam 4-C), the “MIC A. baumannii ATCC 19606” value in data set [1] is 1 µg/mL (≈ 0.865 µM). The “MIC E. coli ATCC 25922” value in data set [2] was found to be 1 µg/mL (≈ 0.865 µM). Besides, in data set [3], the “MIC P. aeruginosa ATCC 27853” value was found to be 1 µg/mL (≈ 0.865 µM). Moreover, the “MIC S. epidermidis ATCC 12228” value in data set [4] was 128 µg/mL (≈ 111 µM). Further, the “MIC K. pneumoniae ATCC BAA-2146 (NDM-1)” value in data set [5] is 1 µg/mL (≈ 0.865 µM). The same molecule returned an IC50 at 72 h in data set [6] of 108 ± 9.16 µg/mL (≈ 93.9 µM).

In the case of `CC[C@H](C)[C@@H]1NC(=O)[C@@H](CC(C)C)NC(=O)[C@H](CCN)NC(=O)[C@@H](NC(=O)[C@H](CCN)NC(=O)[C@@H](NC(=O)[C@H](CCN)NC(=O)CCCCC(C)C)[C@@H](C)O)CCNC(=O)[C@H]([C@@H](C)O)NC(=O)[C@H](CCN)NC(=O)[C@H](CCN)NC1=O` [Compound 75, 6-methylheptanoyl-Dab-Thr-Dab-ring(4-10)[Dab-Dab-D-Leu-Ile-Dab-Dab-Thr]] ({Heptanoyl(6-Me)}-[Dab]T[Dab][Dab][Dab][dL]I[Dab][Dab]T; lactam 4-C), the “MIC A. baumannii ATCC 19606” value in data set [1] is 1 µg/mL (≈ 0.865 µM). Moreover, the “MIC E. coli ATCC 25922” value in data set [2] stood at 1 µg/mL (≈ 0.865 µM). In data set [3], the “MIC P. aeruginosa ATCC 27853” value was found to be 2 µg/mL (≈ 1.73 µM). Besides, the “MIC S. epidermidis ATCC 12228” value in data set [4] is 128 µg/mL (≈ 111 µM). The “MIC K. pneumoniae ATCC BAA-2146 (NDM-1)” value in data set [5] is 1 µg/mL (≈ 0.865 µM). The molecule further showed an IC50 at 72 h in data set [6] of 199 ± 13.1 µg/mL (≈ 172 µM).

On to `CC(C)CCCCC(=O)N[C@@H](CCN)C(=O)N[C@H](C(=O)N[C@@H](CCN)C(=O)N[C@H]1CCNC(=O)[C@H]([C@@H](C)O)NC(=O)[C@H](CCN)NC(=O)[C@H](CCN)NC(=O)[C@H](C(C)C)NC(=O)[C@@H](CC(C)C)NC(=O)[C@H](CCN)NC1=O)[C@@H](C)O` [Compound 76, 6-methylheptanoyl-Dab-Thr-Dab-ring(4-10)[Dab-Dab-D-Leu-Val-Dab-Dab-Thr]] ({Heptanoyl(6-Me)}-[Dab]T[Dab][Dab][Dab][dL]V[Dab][Dab]T; lactam 4-C), for which the “MIC A. baumannii ATCC 19606” value in data set [1] was determined as 1 µg/mL (≈ 0.876 µM). The “MIC E. coli ATCC 25922” value in data set [2] was determined as 0.5 µg/mL (≈ 0.438 µM). Further, the “MIC P. aeruginosa ATCC 27853” value in data set [3] turned out to be 2 µg/mL (≈ 1.75 µM). Moreover, the “MIC S. epidermidis ATCC 12228” value in data set [4] was more than 128 µg/mL. Further, the “MIC K. pneumoniae ATCC BAA-2146 (NDM-1)” value in data set [5] was found to be 0.5 µg/mL (≈ 0.438 µM). Also, the IC50 at 72 h in data set [6] amounted to 225 ± 17 µg/mL (≈ 197 µM).

Turning to `CCC[C@@H]1NC(=O)[C@@H](CC(C)C)NC(=O)[C@H](CCN)NC(=O)[C@@H](NC(=O)[C@H](CCN)NC(=O)[C@@H](NC(=O)[C@H](CCN)NC(=O)CCCCC(C)C)[C@@H](C)O)CCNC(=O)[C@H]([C@@H](C)O)NC(=O)[C@H](CCN)NC(=O)[C@H](CCN)NC1=O` [Compound 77, 6-methylheptanoyl-Dab-Thr-Dab-ring(4-10)[Dab-Dab-D-Leu-Nva-Dab-Dab-Thr]] ({Heptanoyl(6-Me)}-[Dab]T[Dab][Dab][Dab][dL][Nva][Dab][Dab]T; lactam 4-C), the “MIC A. baumannii ATCC 19606” value in data set [1] came out at 0.5 µg/mL (≈ 0.438 µM). The “MIC E. coli ATCC 25922” value in data set [2] was found to be 0.5 µg/mL (≈ 0.438 µM). Moreover, the “MIC P. aeruginosa ATCC 27853” value in data set [3] is 1 µg/mL (≈ 0.876 µM). In data set [4], the “MIC S. epidermidis ATCC 12228” value is more than 128 µg/mL. Moreover, in data set [5], the “MIC K. pneumoniae ATCC BAA-2146 (NDM-1)” value amounted to 0.5 µg/mL (≈ 0.438 µM). The molecule further displayed an IC50 at 72 h in data set [6] of 168 ± 12.5 µg/mL (≈ 148 µM).

Turning to `CCCCCCC(=O)N[C@@H](CCN)C(=O)N[C@H](C(=O)N[C@@H](CCN)C(=O)N[C@H]1CCNC(=O)[C@H]([C@@H](C)O)NC(=O)[C@H](CCN)NC(=O)[C@H](CCN)NC(=O)[C@H](CC(C)C)NC(=O)[C@@H](CC(C)C)NC(=O)[C@H](CCN)NC1=O)[C@@H](C)O` [Compound 82, heptanoyl-Dab-Thr-Dab-ring(4-10)[Dab-Dab-D-Leu-Leu-Dab-Dab-Thr]] (Heptanoyl-[Dab]T[Dab][Dab][Dab][dL]L[Dab][Dab]T; lactam 4-C), in data set [1], the “MIC A. baumannii ATCC 19606” value amounted to 2 µg/mL (≈ 1.75 µM). Further, the “MIC E. coli ATCC 25922” value in data set [2] amounted to 1 µg/mL (≈ 0.876 µM). In addition, in data set [3], the “MIC P. aeruginosa ATCC 27853” value was found to be 1 µg/mL (≈ 0.876 µM). Besides, the “MIC S. epidermidis ATCC 12228” value in data set [4] was more than 128 µg/mL. Besides, in data set [5], the “MIC K. pneumoniae ATCC BAA-2146 (NDM-1)” value stood at 0.5 µg/mL (≈ 0.438 µM). The same molecule came in with a half-maximal inhibitory concentration (IC50) at 72 h in data set [6] of 216 ± 16.1 µg/mL (≈ 189 µM).

Consider `CC(C)CCCCCC(=O)N[C@@H](CCN)C(=O)N[C@H](C(=O)N[C@@H](CCN)C(=O)N[C@H]1CCNC(=O)[C@H]([C@@H](C)O)NC(=O)[C@H](CCN)NC(=O)[C@H](CCN)NC(=O)[C@H](CC(C)C)NC(=O)[C@@H](CC(C)C)NC(=O)[C@H](CCN)NC1=O)[C@@H](C)O` [Compound 86, 7-methyloctanoyl-Dab-Thr-Dab-ring(4-10)[Dab-Dab-D-Leu-Leu-Dab-Dab-Thr]] ({Octanoyl(7-Me)}-[Dab]T[Dab][Dab][Dab][dL]L[Dab][Dab]T; lactam 4-C), for which the “MIC A. baumannii ATCC 19606” value in data set [1] was 1 µg/mL (≈ 0.855 µM). For the same molecule, the “MIC E. coli ATCC 25922” value in data set [2] stood at 1 µg/mL (≈ 0.855 µM). Also, in data set [3], the “MIC P. aeruginosa ATCC 27853” value worked out at 2 µg/mL (≈ 1.71 µM). The “MIC S. epidermidis ATCC 12228” value in data set [4] worked out at 64 µg/mL (≈ 54.7 µM). Also, in data set [5], the “MIC K. pneumoniae ATCC BAA-2146 (NDM-1)” value was 1 µg/mL (≈ 0.855 µM). This molecule showed a concentration for half-maximal inhibition (IC50) at 72 h in data set [6] of 87 ± 6.98 µg/mL (≈ 74.4 µM).

As for `CC(C)CCCCC(=O)N[C@@H](CCN)C(=O)N[C@H](C(=O)N[C@@H](CCN)C(=O)N[C@H]1CCNC(=O)[C@H]([C@@H](C)O)NC(=O)[C@H](CCN)NC(=O)[C@H](CCN)NC(=O)[C@H]([C@@H](C)O)NC(=O)[C@@H](CC(C)C)NC(=O)[C@H](CCN)NC1=O)[C@@H](C)O` [Compound 103, 6-methylheptanoyl-Dab-Thr-Dab-ring(4-10)[Dab-Dab-D-Leu-Thr-Dab-Dab-Thr]] ({Heptanoyl(6-Me)}-[Dab]T[Dab][Dab][Dab][dL]T[Dab][Dab]T; lactam 4-C), the “MIC A. baumannii ATCC 19606” value in data set [1] amounted to 1 µg/mL (≈ 0.875 µM). Also, the “MIC E. coli ATCC 25922” value in data set [2] was found to be 0.5 µg/mL (≈ 0.437 µM). The “MIC P. aeruginosa ATCC 27853” value in data set [3] was 0.5 µg/mL (≈ 0.437 µM). Besides, the “MIC S. epidermidis ATCC 12228” value in data set [4] is more than 128 µg/mL. The “MIC K. pneumoniae ATCC BAA-2146 (NDM-1)” value in data set [5] was found to be 0.5 µg/mL (≈ 0.437 µM). The molecule further registered a 50% inhibitory concentration (IC50) at 72 h in data set [6] of 276 ± 17.7 µg/mL (≈ 241 µM).
